For this assay, the target named is MAP kinase-activated protein kinase 2 (Homo sapiens, UniProt P49137). The assay is described as follows: Inhibition of human recombinant MK2 by ELISA. For orientation: An ELISA detects its analyte on a solid surface through an enzyme-linked reagent.

Molecules are shown by their SMILES.

MAP kinase-activated protein kinase 2, sequence (P49137 whole entry): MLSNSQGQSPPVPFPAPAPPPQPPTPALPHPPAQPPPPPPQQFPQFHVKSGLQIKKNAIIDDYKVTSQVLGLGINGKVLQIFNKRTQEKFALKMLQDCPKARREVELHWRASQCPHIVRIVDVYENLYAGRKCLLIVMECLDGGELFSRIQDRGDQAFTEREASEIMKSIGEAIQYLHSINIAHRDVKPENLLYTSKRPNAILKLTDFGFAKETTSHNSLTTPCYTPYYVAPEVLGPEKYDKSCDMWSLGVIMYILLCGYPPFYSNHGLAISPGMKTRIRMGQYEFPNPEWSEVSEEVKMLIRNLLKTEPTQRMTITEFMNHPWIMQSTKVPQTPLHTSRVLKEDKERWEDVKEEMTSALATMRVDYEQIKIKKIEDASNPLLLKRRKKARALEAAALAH

The term IC50 denotes the concentration at which inhibition is half-maximal. Consider `CCCc1cc(=O)c2c(Cc3cc(O)cc(=O)o3)cccc2o1` [PHAEOCHROMYCIN C], for which the IC50 was 130 µM.
Turning to `CCCc1cc(O)c2c(O)cccc2c1-c1cc(O)cc(=O)o1` [PHAEOCHROMYCINS A], the IC50 turned out to be 39 µM.

These data come from ChEMBL document CHEMBL1141784, “Phaeochromycins A-E, anti-inflammatory polyketides isolated from the soil actinomycete Streptomyces phaeochromogenes LL-P018” (J Nat Prod, 2005).
